From PMC3194046 (European journal of pharmacology, 2009)

Key:
[1] = system: dopamine (D2) receptor; conditions: ref Kumagai et al., 2000; cited from earlier work
[2] = biological target: T1, sigma2 receptor (Rattus norvegicus, UniProt Q5U3Y7); assay: Sigma2 receptor binding with [3H]-DTG on rat liver membranes, 100 nM; conditions: 100 nM (+)-pentazocine
T1 sequence (Q5U3Y7 1-176): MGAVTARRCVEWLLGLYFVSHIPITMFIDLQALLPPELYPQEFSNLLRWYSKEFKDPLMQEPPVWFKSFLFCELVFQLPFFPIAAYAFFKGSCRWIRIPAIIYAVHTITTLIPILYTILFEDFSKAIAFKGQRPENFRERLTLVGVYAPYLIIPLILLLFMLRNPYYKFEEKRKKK

[3] = biological target: pure sigma1 receptor (Cavia porcellus, UniProt Q60492); conditions: for inhibition of [125I]Iodoazidococaine photolabeling: 10 µM compound, 1 nM photoprobe; for relative inhibition of [125I]-Iodoazidococaine photolabeling: compounds at 0.1 µM, 1 µM and 10 µM
[4] = biological target: T2, purified guinea pig sigma1 receptor (Cavia porcellus, UniProt Q60492); assay: Competition binding of [3H]-; conditions: for inhibition of [3H]-(+)-pentazocine binding to the sigma1 receptor: Fig. 2A, 2B
[5] = biological target: T3, sigma1 receptor (Cavia porcellus, UniProt Q60492); assay: Inhibition of [3H]-; assay type: binding
[6] = biological target: T4, sigma1 receptor in guinea pig liver membranes (Cavia porcellus, UniProt Q60492); assay: Competition binding of [3H]-
[7] = biological target: T4, sigma1 receptor in guinea pig liver membranes; assay: Saturation equilibrium binding of [3H]-; conditions: saturation binding and Scatchard transformation
[8] = biological target: T3, sigma1 receptor; assay: Inhibition of [3H]-; assay type: binding; conditions: HEK-293 homogenates S1,SK1; 2 mM ATP, 5 mM MgCl2; concentrations as high as 100 µM
[9] = biological target: T2, purified guinea pig sigma1 receptor; conditions: ref Moebius et al., 1997; Ramachandran et al., 2007; cited from earlier work
[10] = biological target: T4, sigma1 receptor in guinea pig liver membranes; conditions: ref Moebius et al., 1997; Ramachandran et al., 2007; cited from earlier work

T4 sequence (Q60492 whole entry): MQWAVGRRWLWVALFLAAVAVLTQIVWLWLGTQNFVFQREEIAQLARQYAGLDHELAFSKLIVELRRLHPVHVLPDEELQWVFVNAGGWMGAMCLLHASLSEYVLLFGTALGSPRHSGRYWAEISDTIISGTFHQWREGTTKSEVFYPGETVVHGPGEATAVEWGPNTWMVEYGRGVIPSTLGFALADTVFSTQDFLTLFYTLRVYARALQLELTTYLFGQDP
Sequence of pure sigma1 receptor (Q60492 whole entry): as above
T2 sequence (Q60492 whole entry): as above
T3 sequence (Q60492 whole entry): as above

| Compound | affinity for the sigma2 receptor [2] | inhibition of [125I]Iodoazidococaine photolabeling [3] | relative inhibition of [125I]-Iodoazidococaine photolabeling [3] | inhibition of [3H]-(+)-pentazocine binding to the sigma1 receptor [4] | other results |
| --- | --- | --- | --- | --- | --- |
| CCCCCCC[C@@H]1CC[C@@H](CCCC)N1 [(2R-trans)-2-Butyl-5-heptylpyrrolidine] |  |  |  |  | affinity for the dopamine (D2) receptor [1]: high affinity |
| CCCCCCCCCCCCC/C=C/[C@@H](O)[C@@H](N)CO [D-erythro-sphingosine] | much lower binding affinity | inhibition of photolabeling |  |  | Ki [4]: 140 ± 20 nM; Ki [5]: 3600 ± 600 nM; Ki [6]: 13000 ± 3100 nM; mode of inhibition of [3H]-(+)-pentazocine binding [7]: simple competitive interaction; inhibition of [3H]-(+)-pentazocine binding [8]: did not show a significant inhibition |
| CCCCCCCCCCCCC/C=C/[C@H](O)[C@@H](N)CO [L-threo-sphingosine] |  |  |  |  | fold more potent at the pure sigma1 receptor than the naturally occurring isomer ([4]; L-threo compared to naturally occurring isomer): approximately 10 fold |
| CCCCCCCCCCCCC/C=C/[C@@H](O)[C@H](CO)N(C)C [N, N dimethyl sphingosine] | much lower binding affinity | inhibition of photolabeling | marginally better than D-erythro sphingosine |  |  |
| CCCCCCCCCCCCN [dodecylamine] |  |  |  |  | Ki [4]: 183 ± 17 nM |
| CCCCCCCCCCCCCCC[C@@H](O)[C@@H](N)CO [sphinganine] | much lower binding affinity |  |  |  |  |
| CCCCCCCCCCCCC/C=C/[C@@H](O)[C@@H](N)COP(=O)(O)O [sphingosine-1 phosphate] | did not bind | did not show significant inhibition | not as effective | failed to do so |  |
| CCCCCCCCCCCCCN1CC(C)OC(C)C1 (stereo not drawn) [tridemorph] |  |  |  |  | affinity on the pure sigma1 receptor [9]: high affinity; affinity for the sigma1 receptor in guinea pig liver membranes [10]: high affinity |
| ceramide |  |  | not as effective | failed to inhibit |  |
| ceramide-1 phosphate |  |  | not as effective | failed to inhibit |  |
